Laboratory results published in US20230000842A1, “METHODS OF TREATING CARTILAGE DISORDERS THROUGH INHIBITION OF CLK AND DYRK” (SAMUMED, LLC, priority 2019, published 2023).

Tests used:
CLK2 kinase = CLK2 kinase (Homo sapiens, UniProt P49760); assay: CLK2 kinase activity assay (Z-lyte FRET); type: biochemical; conditions: Z-lyte Ser/Thr 6 peptide, 60 μM ATP, 1 h at room temperature;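 note: FRET read-out as coumarin to fluorescein emission ratio, unphosphorylated peptide as 0% and phosphorylated peptide as 100% controls, duplicate reactions, non-linear regression fit of dose-response curves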
CLK2 kinase, sequence (P49760 whole entry): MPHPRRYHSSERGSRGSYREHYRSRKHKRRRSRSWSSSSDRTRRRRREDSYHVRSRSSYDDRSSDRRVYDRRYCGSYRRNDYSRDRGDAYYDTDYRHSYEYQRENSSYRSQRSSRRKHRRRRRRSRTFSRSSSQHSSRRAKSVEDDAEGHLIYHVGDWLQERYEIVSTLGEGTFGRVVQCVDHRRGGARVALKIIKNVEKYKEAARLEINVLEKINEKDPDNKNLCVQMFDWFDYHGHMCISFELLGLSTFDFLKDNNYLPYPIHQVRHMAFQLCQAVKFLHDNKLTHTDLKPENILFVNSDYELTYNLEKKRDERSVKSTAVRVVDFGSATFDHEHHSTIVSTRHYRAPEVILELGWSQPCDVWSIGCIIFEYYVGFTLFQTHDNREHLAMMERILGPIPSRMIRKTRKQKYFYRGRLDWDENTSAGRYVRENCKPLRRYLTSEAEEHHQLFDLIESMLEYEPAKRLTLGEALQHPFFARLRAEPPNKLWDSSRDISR

[1] = tested on: primary human mesenchymal stem cells (hMSCs); assay: Chondrogenesis screening using primary human mesenchymal stem cells; type: cell-based; conditions: Homo sapiens, Mesenchymal stem cells, hMSC chondrogenesis; for Emax: maximum activity relative to TGF-β3 (10 ng/mL) positive control, read-out: Max. Activity as % TGF-β3 activity; for EC50: concentration required to induce 50% levels of chondrogenesis with TGF-β3 as positive control, read-out: Conc (nM) of 50% TGF-β3 activity
Text: Representative compounds were screened using primary human mesenchymal stem cells (hMSCs) to determine their ability to induce chondrogenesis (process by which cartilage is developed).
Human Mesenchymal Stem Cell Culture: Primary human mesenchymal stem cells (hMSCs) were purchased from Lonza (Walkersville, Md.) and expanded in Mesenchymal Stem Cell Growth Media (Lonza). Cells between passage 3 and 6 were used for the experiments.
Area of nodules in each well was normalized to the average of 3 DMSO treated wells on the same plate using Excel (Microsoft Inc.). The normalized averages (fold change over DMSO) of 2 or 3 replicate wells for each compound concentration were calculated. Due to solubility limitations of some of the compounds, curve fitting was incomplete leading to inaccurate EC50 determinations.
Using TGF-β3 as a positive control, the concentration of representative compounds required to induce 50% levels of chondrogenesis is reported. In addition, the maximum activity of each compound and the respective dose that each compound reached maximum chondrogenesis activity is reported.

[2] = tested on: Wnt pathway activity (SW480 colon carcinoma cells stably expressing the Sp5-Luc reporter); assay: Wnt pathway activity screening assay (Sp5-Luc reporter gene assay); conditions: Homo sapiens, SW480, Table 4; SW480 cells stably expressing Sp5-Luc reporter, 10-point dose-response from 10 μM, 36 to 48 hours
CLK3 kinase = CLK3 kinase (Homo sapiens, UniProt P49761); assay: CLK3 kinase activity assay (Z-lyte FRET); type: biochemical; conditions: Z-lyte Ser/Thr 18 peptide, 156 μM ATP, 1 h at room temperature;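 note: kinase activity read as coumarin/fluorescein emission ratio by FRET, unphosphorylated peptide as 0% and phosphorylated peptide as 100% control, values from non-linear regression of dose-response curves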
CLK3 kinase, sequence (P49761 whole entry): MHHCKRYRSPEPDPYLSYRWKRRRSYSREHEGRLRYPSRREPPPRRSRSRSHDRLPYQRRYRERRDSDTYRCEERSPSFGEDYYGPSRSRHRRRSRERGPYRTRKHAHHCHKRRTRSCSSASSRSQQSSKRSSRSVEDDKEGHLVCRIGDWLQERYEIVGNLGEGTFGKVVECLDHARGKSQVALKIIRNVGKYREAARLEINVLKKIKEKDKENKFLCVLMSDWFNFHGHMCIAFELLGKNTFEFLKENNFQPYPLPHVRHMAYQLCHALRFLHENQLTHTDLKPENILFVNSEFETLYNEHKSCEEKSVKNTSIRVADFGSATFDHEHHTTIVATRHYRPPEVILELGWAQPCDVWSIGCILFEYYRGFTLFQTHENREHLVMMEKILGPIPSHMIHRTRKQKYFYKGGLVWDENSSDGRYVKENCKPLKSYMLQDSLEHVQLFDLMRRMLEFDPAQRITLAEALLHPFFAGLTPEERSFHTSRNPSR

SMILES | EC50 (CLK2 kinase) | Emax [1] | EC50 [2] | EC50 (CLK3 kinase) | EC50 [1]
O=C(Nc1ccc(OCCN2CCCC2)nc1)c1n[nH]cc1C#Cc1cccnc1 [compound 28] | 0.046 µM | 68.8% | 0.409 µM |  | 
COc1cncc(C#Cc2c[nH]nc2C(=O)Nc2ccc(N3CCNCC3)nc2)c1 [compound 29] | 0.025 µM | 74.7% | > 10 µM |  | 
Fc1cccc(-c2cncc3[nH]c(-c4n[nH]cc4C#Cc4cncc(OC5CCNCC5)c4)nc23)c1 [compound 33] | 0.003 µM |  | 4.64 µM | 0.148 µM | 
Cc1n[nH]c2cc(F)c(-c3cncc(CN4CCCCC4)n3)cc12 [compound 40] | 0.045 µM |  | 2.44 µM | 2.38 µM | 
Cc1n[nH]c2ccc(-c3cncc(NN4CCNCC4)n3)cc12 [compound 41] | 0.001 µM |  | 0.256 µM | 1.42 µM | 
Cc1n[nH]c2ccc(-c3cncc(NC4CCNC[C@@H]4F)n3)cc12 (stereo partly drawn) [compound 42] |  | 25.6% | 0.0843 µM |  | 
Cc1n[nH]c2ccc(-c3cncc(OC4CCNC[C@@H]4F)n3)cc12 (stereo partly drawn) [compound 44] |  | 44.9% | 0.627 µM |  | 100 nM
Cc1n[nH]c2ccc(-c3cncc(OC4CCNC[C@H]4F)n3)cc12 (stereo partly drawn) [compound 45] |  | 54.2% | 0.834 µM |  | 30 nM
Cc1n[nH]c2ccc(-c3cncc(OC4CCNCC4(F)F)n3)cc12 (stereo not drawn) [compound 47] |  | 82.1% | 0.227 µM |  | 300 nM
CN(C)C(=O)Nc1cncc(-c2ccc3[nH]nc(C(=O)Nc4cccnc4)c3c2)c1 [compound 54] | 0.001 µM |  | 0.176 µM | 0.02 µM | 
CN1CCN(c2ccc(NC(=O)c3n[nH]c4ccc(-c5cncc(NC(=O)C6CC6)c5)cc34)cn2)CC1 [compound 55] | 0.001 µM |  | 0.08 µM | 0.013 µM | 
O=C(Nc1cccnc1)c1n[nH]c2ccc(-c3cncc(NC(=O)N4CCOCC4)c3)cc12 [compound 56] | 0.004 µM |  | 1.25 µM | 0.047 µM | 
Cc1cc2[nH]nc(C(=O)Nc3ccc(CN4CCCC4)cc3)c2cc1-c1cccnc1 [compound 60] | 0.002 µM |  | 1.09 µM | 0.581 µM | 
CN1CCN(Cc2ccc(NC(=O)c3n[nH]c4ccc(-c5cccnc5)cc34)cn2)CC1 [compound 62] | 0.001 µM |  | 0.037 µM | 0.034 µM | 
O=C(Nc1cnccc1NC(=O)C1CC1)c1n[nH]c2ccc(-c3cccnc3)cc12 [compound 63] | 0.001 µM |  | 0.068 µM | 0.343 µM | 
O=C(Nc1ccnnc1)c1n[nH]c2ccc(-c3cccnc3)cc12 [compound 64] | 0.001 µM |  | 0.106 µM | 0.021 µM | 
CN(C)Cc1cncc(NC(=O)c2n[nH]c3ccc(-c4cncc(CN5CCCC5)c4)cc23)c1 [compound 70] | 0.001 µM |  | 0.33 µM | 0.036 µM | 
CN(C)CCN(C)c1ccc(NC(=O)c2n[nH]c3ccc(-c4cncc(CN5CCCCC5)c4)cc23)cn1 [compound 84] | 0.001 µM |  | 0.065 µM | 0.014 µM | 
O=C(Nc1ccc(N2CCC(O)CC2)nc1)c1n[nH]c2ccc(-c3cncc(CN4CCCCC4)c3)cc12 [compound 91] | 0.001 µM |  | 0.049 µM | 0.022 µM | 
O=C(Nc1ccc(-c2ccccc2)nc1)c1n[nH]c2ccc(-c3cncc(CN4CCCCC4)c3)cc12 [compound 93] | 0.005 µM |  | 0.101 µM | 0.071 µM | 
COc1cncc(-c2ccc3[nH]nc(-c4nc5c(-c6cccc(F)c6)cncc5[nH]4)c3n2)c1 [compound 149] | 0.002 µM | 55.5% |  | 0.065 µM | 20.6 nM
COc1cncc(-c2ccc3[nH]nc(-c4nc5c(-c6cccc(F)c6)ccnc5[nH]4)c3n2)c1 [compound 150] | 0.003 µM | 47% |  | 0.089 µM | 
Fc1cccc(-c2cncc3[nH]c(-c4n[nH]c5ccc(-c6cn[nH]c6)nc45)nc23)c1 [compound 154] | 0.003 µM | 51.8% | > 10 µM |  | 20.6 nM
c1cc(-c2cncc3[nH]c(-c4n[nH]c5ccc(-c6cncc(CNCC7CCCC7)c6)cc45)nc23)cs1 [compound 250] | 0.004 µM | 167% | 0.058 µM |  | 100 nM

SMILES | EC50 (CLK2 kinase) | Emax [1] | EC50 [2] | EC50 (CLK3 kinase) | EC50 [1]
CN(C)Cc1cncc(-c2cnc3[nH]nc(-c4nc5c(-c6ccsc6)cccc5[nH]4)c3c2)c1 [compound 251] |  | 105% | 0.032 µM | 0.067 µM | 300 nM
CN(C)CCOc1cncc(-c2cc3c(-c4cc5c(-c6ccc(F)cc6)nccc5[nH]4)n[nH]c3cn2)c1 [compound 318] | 0.019 µM | 113% | 3 µM |  | 900 nM
Nc1cncc(-c2cc3c(-c4cc5c(-c6ccccc6F)ccnc5[nH]4)n[nH]c3cn2)c1 [compound 325] | 0.004 µM | 32.4% | > 10 µM |  | 
CC(C)Nc1cncc(-c2cnc3[nH]nc(-c4cc5c(-c6ccccc6F)ccnc5[nH]4)c3c2)c1 [compound 333] | 0.02 µM | 81.6% | > 10 µM |  | 10 nM
Cc1ccncc1-c1ccc2[nH]nc(-c3cc4c(-c5ccncc5)ccnc4[nH]3)c2n1 [compound 376] | 0.011 µM | 56.5% | > 10 µM |  | 300 nM
Nc1cncc(-c2cnc3[nH]nc(-c4cc5c(-c6ccncc6)ccnc5[nH]4)c3c2)c1 [compound 380] | 0.005 µM | 11.9% | > 10 µM |  | 
Nc1cncc(-c2cc3c(-c4cc5c(-c6ccncc6)cncc5[nH]4)n[nH]c3cn2)c1 [compound 381] | 0.003 µM | 52% | > 10 µM |  | 10 nM
CCCC(=O)Nc1cncc(-c2cnc3[nH]nc(-c4cc5c(-c6ccncc6)ccnc5[nH]4)c3c2)c1 [compound 384] |  | 50.3% | 0.999 µM | 0.1 µM | 30 nM
O=C(CC1CCNCC1)Nc1cncc(-c2cnc3[nH]nc(-c4cc5c(-c6ccncc6)ccnc5[nH]4)c3c2)c1 [compound 393] | 0.006 µM | 26.7% | > 10 µM |  | 
c1cc(-c2ccnc3[nH]c(-c4n[nH]c5ccc(-c6cncc(CNCC7CCCC7)c6)nc45)cc23)ccn1 [compound 396] | 0.012 µM | 67.2% | > 10 µM |  | 100 nM
CN(C)c1cncc(-c2cnc3[nH]nc(-c4cc5c(-c6ccncc6)cncc5[nH]4)c3c2)c1 [compound 397] | 0.003 µM | 191% | > 10 µM |  | 
c1cc(-c2ccnc3[nH]c(-c4n[nH]c5ccc(-c6cncc(OCCN7CCCC7)c6)nc45)cc23)ccn1 [compound 404] | 0.005 µM | 39.6% | > 10 µM |  | 
c1cc(-c2ccnc3[nH]c(-c4n[nH]c5ccc(-c6cncnc6)cc45)cc23)ccn1 [compound 405] | 0.003 µM | 17.3% | > 10 µM |  | 
O=C(Nc1cncc(-c2cnc3[nH]nc(-c4cc5cccnc5[nH]4)c3c2)c1)c1ccccc1 [compound 436] | 0.008 µM | 21.8% | > 10 µM |  | 
Cn1cc(-c2cnc3[nH]nc(-c4cc5cccnc5[nH]4)c3c2)cn1 [compound 454] | 0.003 µM | 51.7% | > 10 µM |  | 300 nM
CN1CCN(c2cccc3[nH]c(-c4n[nH]c5ncc(-c6cncc(CN7CCCCC7)c6)cc45)cc23)CC1 [compound 494] | 0.012 µM |  |  | 0.973 µM | 300 nM
CN1CCN(c2ccnc3[nH]c(-c4n[nH]c5ccc(-c6cn[nH]c6)nc45)cc23)CC1 [compound 498] | 0.003 µM | 60.1% | > 10 µM |  | 300 nM
CN1CCN(c2cc(C(=O)Nc3cc4cc(-c5cnn(C)c5)ccc4cn3)ccn2)CC1 [compound 545] |  | 27.1% |  |  | 
CNC(=O)c1ccc(C(=O)Nc2cc3cc(-c4cn(C)nn4)ccc3cn2)cn1 [compound 577] | 0.003 µM |  |  | 0.056 µM | 
Cn1cncc1-c1ccc2cnc(NC(=O)c3ccnc(N4CC(N)C4)c3)cc2c1 [compound 581] | 0.002 µM |  |  | 0.011 µM | 
O=C(Cc1ccccc1)Nc1cncc(-c2ccc3[nH]nc(-c4nc5c(-c6ccncc6)ccnc5[nH]4)c3n2)c1 [compound 626] | 0.007 µM |  | > 10 µM |  | 
COc1cccc(-c2cncc3[nH]c(-c4n[nH]c5ccc(-c6cn[nH]c6)nc45)nc23)c1 [compound 633] | 0.003 µM |  | > 10 µM |  | 
CN1CC2CCC(C1)N2C(=O)Nc1cc2cc(-c3cnn(C)c3)ccc2cn1 [compound 638] | 1.13 µM |  | > 10 µM |  | 
O=C(Nc1cc2cc(-c3cnco3)cnc2cn1)[C@H]1CC[C@H](CO)CC1 [compound 640] | 7.43 µM |  | > 10 µM |  | 
